Measured values taken from US4895589A, “Heterocyclic compounds” (Imperial Chemical Industries PLC, priority 1985, dated 1990).

Legend:
Lettuce = conditions: LT, 4000 ppm, 2-3 weeks
Experimental: (§5) The compounds were tested for plant growth regulator activity against up to tweleve plant species for various growth effects relevant to plant growth regulation.
(§6) After spray, the plants were grown in a glasshouse with 25° C. day/22° C. night temperatures and supplementary lighting was supplied when necessary (from mercury vapour lamps), to provide a 16 hour photoperiod. The exception to this were the temperate cereals, wheat and barley, which were grown in 16° C. day 13° C. night temperatures
(§7) After 2-3 weeks in the glasshouse, depending on the time of year, the plants were visually assessed for morphological characteristics. Formulations blanks were used as controls to assess the Plants.

Apples = assay: Intermediate Retardant Test, apples; format: in vivo, Apples (Red Delicious); conditions: 672 h, ~28 days, Table IX, read-out: Percentage Reduction in Height of Apples (Compared to formulation blank)
Experimental: (§1) Three species are involved in this test RICE, SPRING-BARLEY and APPLES. The variety and growth stages at spray are outlined in Table VI. Compounds were applied at 1000 ppm and 4000 ppm respectively (1 kg and 4 kg ha^-1 at a field volume of 1000 l/ha^-1) as an overall spray. This gives a foliar and root component in the test, i.e. this test will detect the activity of both root and foliar acting compounds. The rice was grown in 4" `paddy` pots, i.e. the roots and bottom of the stems are immersed in water under conditions corresponding to those in paddy fields. Spring barley and apples were grown in 4" pots. The plants were assessed for height to top-most ligule at approximately 28 days after treatment for spring barley and rice and for height to apex at approximately 28 days after the treatment for apples. In each case the result for the 1000 ppm and 4000 ppm test for each compound is compared to the height of the formulation blank in that test, presented as a percentage reduction in height compared to the formulation blank.
as §1, with “in Table XIV. Compounds were” for “in Table VI. Compounds were”, “that test, and presented as” for “that test, presented as”

Spring Barley = assay: Intermediate Retardant Test, spring barley; format: in vivo, Spring Barley (Atem/kym); conditions: Hordeum vulgare, 672 h, ~28 days, Table VIII, read-out: Percentage Reduction in Height of Spring Barley (Compared to formulation blank)
Experimental: as §1
as §1, with “in Table XIV. Compounds were” for “in Table VI. Compounds were”, “that test, and presented as” for “that test, presented as”

Wheat [1] = conditions: WW, 4000 ppm, 2-3 weeks
Experimental: as §5, §6, §7

Maize = conditions: MZ, 4000 ppm, 2-3 weeks
Experimental: as §5, §6, §7

Soya = conditions: SY, 4000 ppm, 2-3 weeks
Experimental: as §5, §6, §7

Vines = conditions: VN, 4000 ppm, 2-3 weeks
Experimental: as §5, §6, §7

Rice [2] = assay: Intermediate Retardant Test, rice; format: in vivo, Rice (Ishikari); conditions: Oryza sativa, 672 h, ~28 days, Table VII, read-out: Percentage Reduction in Height of Rice (Compared to formulation blank)
Experimental: as §1
as §1, with “in Table XIV. Compounds were” for “in Table VI. Compounds were”, “that test, and presented as” for “that test, presented as”

Dacrylis glomerata = conditions: DA, 4000 ppm, 2-3 weeks
Tomato = conditions: TO, 4000 ppm, 2-3 weeks
Experimental: as §5, §6, §7

[3] = test system: plant species of Whole Plant Screen (1) or (2); assay: Across screen comparison: total retardation relative to paclobutrazol (Whole Plant Screens (1) and (2)); format: in vivo; conditions: compounds of Table I, Table X
Source text: The following Example is a general indicative comparison of compounds from EP No. 0052424 with compounds from the preferred class in the present invention. The compounds have not been side-by-side tested on this Example because of the large numbers involved but the retardant activity can be compared using a standard which has been on each test.
The compounds which are compared in this Example have been tested on one of two tests. These are the Whole Plant Screen (1) and Whole Plant Screen (2) the methods for which are described in Examples 17 and 18 respectively.
An across screen comparison between compounds is made by expressing the total retardation (ie. sum of retardation scores recorded for each species tested) caused by the compound as a percentage of the total retardation caused by the standard in that test. The standard chemical gives a measure of the performance of the test and environmental factors. By expressing the test compound activity as a percentage of the standard compound activity these factors can be eliminated . The same standard has been used in every test and this is paclobutrazol a proprietory growth regulator.

Barley [4] = conditions: BR, 4000 ppm, 2-3 weeks
Sugar beet = conditions: SB, 4000 ppm, 2-3 weeks
Experimental: as §5, §6, §7

Agrostis tenius = conditions: AT, 4000 ppm, 2-3 weeks
Experimental: as §5, §6, §7

Cynosurus cristatus = conditions: CC, 4000 ppm, 2-3 weeks
Experimental: as §5, §6, §7

Apple = assay: Whole Plant Screen (2), apple; format: in vivo, Apple (Red Delicious); conditions: Ap, 4000 ppm, 2-6 weeks, Table V
Experimental: (§2) After 2-6 weeks in the glasshouse, depending on the time of year, the plants were visually assessed for morphological characteristics. Formulation blanks were used as controls to assess the plants.
(§3) Compound numbers 1, 5 and 7 (of the present invention) were tested against compounds A, B, C and D (compound Nos. 12, 2, 24 and 50 of Table 1 EP No. 0052424) on whole plant screen (2). The compounds were tested of plant growth regulator activity against five species and for various growth effects relevant to plant growth regulation. The structures are set out in FIG. 1.
(§4) The plant species used in this screen are presented in Table XII with the leaf stage at which they were sprayed Each chemical was applied at 4000 ppm (4 kg/ha in a 1000 l/ha field volume) using a tracksprayer and a SS8004E (Teejet) nozzle. […]

Rice [5] = assay: Whole Plant Screen (2), rice; format: in vivo, Rice (Ishikari); conditions: RC, 4000 ppm, 2-6 weeks, Table V
Experimental: as §2, §3, §4

Barley [6] = assay: Whole Plant Screen (2), barley; format: in vivo, Barley (Atem); conditions: BR, 4000 ppm, 2-6 weeks, Table V
Experimental: as §3, §4

Wheat [7] = assay: Whole Plant Screen (2), wheat; format: in vivo, Wheat (Timmo); conditions: WW, 4000 ppm, 2-6 weeks, Table V
Experimental: Compound numbers 12-13, 16-17 and 19-20 were tested on an alternative whole plant screen (2). The compounds were tested for plant growth regulator activity against five species for various growth effects relevant to plant growth regulation.
The plant species used in this screen are presented in Table IV with the leaf stage at which they were sprayed. Each chemical was applied at 4000 ppm (4 kg/ha in a 1000 l/ha field volume) using a tracksprayer and a SS8004E (Teejet) nozzle. […]
After 2-6 weeks in the glasshouse, depending on the time of year, the plants were visually assessed for morphological characteristics. Formulation blanks were used as controls to assess the plants. […]

Row | SMILES | Retardation score (1-3) with greening (G), apical damage (A), tillering/side shooting (T) (Lettuce) | percent reduction in plant height vs formulation blank at 1000 ppm (Apples) [%] | percent reduction in plant height vs formulation blank at 4000 ppm (Apples) [%] | height reduction vs blank at 1000 ppm (Spring Barley) [%] | height reduction vs blank at 4000 ppm (Spring Barley) [%] | Retardation score (1-3) with greening (G), apical damage (A), tillering/side shooting (T) (Wheat [1]) [GT] | Retardation score (1-3) with greening (G), apical damage (A), tillering/side shooting (T) (Soya) | Retardation score (1-3) with greening (G), apical damage (A), tillering/side shooting (T) (Vines) | Percent reduction in rice plant height vs formulation blank at 4000 ppm (Rice [2]) [%] | Retardation score (1-3) with greening (G), apical damage (A), tillering/side shooting (T) (Dacrylis glomerata) | Retardation score (1-3) with greening (G), apical damage (A), tillering/side shooting (T) (Tomato) [G] | Total Retardation expressed as a percentage of the total retardation caused by paclobutrazol [3] | Retardation score (1-3) with greening (G), apical damage (A), tillering/side shooting (T) (Barley [4]) | Retardation score (1-3) with greening (G), apical damage (A), tillering/side shooting (T) (Agrostis tenius) | Retardation score (1-3) with greening (G), apical damage (A), tillering/side shooting (T) (Cynosurus cristatus) | Percent reduction in rice plant height vs formulation blank at 1000 ppm (Rice [2]) [%] | A = Apical damage (Apple) | T = Tillering or side shooting (Apple) | I = Interligular or internodal length reduction (Barley [6]) | T = Tillering or side shooting (Wheat [7]) | further results
1 | CCCCCCC#CC(O)(Cn1cncn1)C(C)(C)C (centres unmarked) [Compound 4, 2,2-dimethyl-3-hydroxy-3-(oct-1-yne-1-yl)-4-(1,2,4-triazol-1-yl)-butane] | 2 (21-60% retardation) | 8.2 | 21 | 23.7 | 27.5 | 1 | 1G | 1G | 5.8 | 1 (10-30% retardation) | 2 |  |  |  |  |  |  |  |  |  | Retardation score (1-3) with greening (G), apical damage (A), tillering/side shooting (T) (Maize): 1G
2 | CCC(C)C#CC(O)(Cn1cncn1)C(C)(C)C (centres unmarked) [Compound 6, 2,2-dimethyl-3-hydroxy-3-(3-methyl-pent-1-yne-1-yl)-4-(1,2,4-triazol-1-yl)-butane] | 1G | 1.2 | 38.6 | 0.8 | 23.5 | 3 | 2GA | 2GT | 22.7 | 1 (10-30% retardation) | 1 | 52.0 % of paclobutrazol | 2G | 1 (10-30% retardation) | 1 (10-30% retardation) | 11.2 |  |  |  |  | Retardation score (1-3) with greening (G), apical damage (A), tillering/side shooting (T) (Sugar beet): 1G
3 | CCCC(C)C#CC(O)(Cn1cncn1)C(C)(C)C (centres unmarked) [Compound 9, 2,2-dimethyl-3-hydroxy-3-(3-methyl-hex-1-yne-1-yl)-4-(1,2,4-triazol-1-yl)-butane] | 1 (10-30% retardation) |  | 10.8 | 15.7 | 32.9 | 2 | 2GAT | 2GT | 32 | 2 (21-60% retardation) | 2 | 73.9 % of paclobutrazol | 1 (10-30% retardation) | 1 (10-30% retardation) | 2 (21-60% retardation) | 8.2 |  |  |  |  | 
4 | CC(C)(C)C(O)(C#CCC1CC1)Cn1cncn1 (centres unmarked) [Compound 16, 2,2-Dimethyl-3-hydroxy-3-(3-cyclopropyl-prop-1-yne-lyl)-4-(1,2,4-triazol-1-yl)-butane] |  | 31.8 | 62.8 | 11 | 24 |  |  |  | 34 |  |  | 100.0 % of paclobutrazol |  |  |  | 14 | 2 (31-60%) | 2 (31-60%) | 3 (61-100%) | 1 (10-30%) | G = Greening effect (Apple): 2 (31-60%); G = Greening effect (Rice [5]): 2 (31-60%); I = Interligular or internodal length reduction (Rice [5]): 3 (61-100%); R = Retardation (Rice [5]): 3 (61-100%); T = Tillering or side shooting (Rice [5]): 1 (10-30%); G = Greening effect (Barley [6]): 1 (10-30%)
5 | CCCCC#CC(O)(Cn1cncn1)C(C)(C)CF (centres unmarked) [Compound 17, 2,2-dimethyl-1-fluoro-3-hydroxy-3-(hex-1-yne-1-yl)-4-(1,2,4-triazole-1-yl)-butane] |  | 9.9 | 54.5 |  | 24 |  |  |  | 22 |  |  | 150.0 % of paclobutrazol |  |  |  |  | 3 (61-100%) | 2 (31-60%) | 2 (31-60%) | 1 (10-30%) | G = Greening effect (Wheat [7]): 1 (10-30%)
